In ChEMBL document CHEMBL1123310, “Spin probes as mechanistic inhibitors and active site probes of thymidylate synthetase” (J Med Chem, 1986):

What was measured:
[1] = target: T1, Thymidylate synthase (Lactobacillus casei, UniProt P00469); assay: In vitro inhibitory activity against Thymidylate synthase was evaluated; set-up: species or system Lacticaseibacillus casei
T1 sequence (P00469 whole entry): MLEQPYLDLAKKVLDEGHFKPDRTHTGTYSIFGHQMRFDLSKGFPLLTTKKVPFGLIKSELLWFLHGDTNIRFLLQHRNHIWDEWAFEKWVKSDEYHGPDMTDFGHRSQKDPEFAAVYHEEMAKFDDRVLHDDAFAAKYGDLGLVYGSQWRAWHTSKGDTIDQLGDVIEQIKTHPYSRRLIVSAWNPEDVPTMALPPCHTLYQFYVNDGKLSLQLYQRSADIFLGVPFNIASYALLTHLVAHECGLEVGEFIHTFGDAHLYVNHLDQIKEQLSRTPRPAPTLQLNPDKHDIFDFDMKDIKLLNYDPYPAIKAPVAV

[2] = target: T2, Thymidylate synthase (Lactobacillus casei) (UniProt P00469); settings: Lacticaseibacillus casei
T2 sequence (whole entry): T1 sequence (P00469 whole entry)

[3] = target: T2, Thymidylate synthase (Lactobacillus casei); settings: Lacticaseibacillus casei; remark: listed apart in the source
Description: Association constant (Kassoc) towards Thymidylate synthase binding site by electron spin resonance

[4] = target: T1, Thymidylate synthase; assay: In vitro inhibitory activity against Thymidylate synthetase was evaluated; set-up: species or system Lacticaseibacillus casei
[5] = target: T2, Thymidylate synthase (Lactobacillus casei); assay: The high gain spectrum and that of thymidylate synthetase both at high and low peaks indicating its binding activity; settings: Lacticaseibacillus casei
[6] = target: T2, Thymidylate synthase (Lactobacillus casei); assay: Association constant (Kassoc) towards Thymidylate synthetase binding site by electron spin resonance; settings: Lacticaseibacillus casei

| SMILES | Ki [1] | 2T11 [2] | K ass [3] | Ki [4] | 2T11 [5] | K ass [6] |
| --- | --- | --- | --- | --- | --- | --- |
| CC1(C)CC(NC(=O)CSc2cn([C@H]3C[C@H](O)[C@@H](CO)O3)c(=O)[nH]c2=O)CC(C)(C)N1[O] | 89 µM | 61 | 240000 M⁻¹ |  |  |  |
| NC/C=C/c1cn([C@H]2C[C@H](O)[C@@H](COP(=O)(O)O)O2)c(=O)[nH]c1=O |  |  |  | 7.9 µM |  |  |
| CC1(C)C=C(C(=O)NC/C=C/c2cn([C@H]3C[C@H](O)[C@@H](CO)O3)c(=O)[nH]c2=O)C(C)(C)N1[O] |  |  |  | 9.2 µM | 60 | 190000 M⁻¹ |
